Results taken from US20250230193A1, “CYCLIC COMPOUND HAVING SELECTIVE KRAS INHIBITORY EFFECT ON HRAS AND NRAS” (CHUGAI SEIYAKU KABUSHIKI KAISHA, priority 2022, published 2025).
Where a SMILES comes first, the peptide text is derived from it. Bridges are numbered along the chain shown (N, C = ends). [ ]: non-standard residue; d: D form. The star is where a group is joined. hPhe(3-Cl-4-CF3) = N[C@@H](CCc1ccc(C(F)(F)F)c(Cl)c1)C(=O)O; NPrPhe(4-CF3) = CCCN[C@@H](Cc1ccc(C(F)(F)F)cc1)C(=O)O; NMeGly(cPent) = CN[C@H](C(=O)O)C1CCCC1; Pro(4,4-F2) = O=C(O)[C@@H]1CC(F)(F)CN1; Pro(4,4-Me2) = CC1(C)CN[C@H](C(=O)O)C1; NMeD = CN[C@@H](CC(=O)O)C(=O)O; NMeL = CN[C@@H](CC(C)C)C(=O)O; Morpholide = C1CN(*)CCO1; NMeA = CN[C@@H](C)C(=O)O; Ac5c = NC1(C(=O)O)CCCC1; Aze = O=C(O)[C@@H]1CCN1; Ac4c = NC1(C(=O)O)CCC1; NPrGly = CCCNCC(=O)O; Sar = CNCC(=O)O

Key:
[1] = target: GDP-bound NRAS wild-type protein (Homo sapiens, UniProt P01111); assay: Binding to NRAS by surface plasmon resonance (SPR), Single Cycle Kinetics; details: SPR; for NRAS/KRAS (ratio of KD value for NRAS to KD value for KRAS): GDP-bound NRAS wild-type vs GDP-bound KRAS wild-type
Chain of GDP-bound NRAS wild-type protein (P01111 whole entry): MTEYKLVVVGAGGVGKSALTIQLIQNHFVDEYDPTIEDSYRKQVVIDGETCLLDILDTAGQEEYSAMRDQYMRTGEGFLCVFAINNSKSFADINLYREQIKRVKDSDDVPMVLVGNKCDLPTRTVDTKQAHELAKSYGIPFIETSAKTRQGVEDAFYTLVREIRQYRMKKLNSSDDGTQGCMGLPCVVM

[2] = target: GDP-bound HRAS wild-type protein (Homo sapiens, UniProt P01112); assay: Binding to HRAS by surface plasmon resonance (SPR), Single Cycle Kinetics; details: SPR; for HRAS/KRAS (ratio of KD value for HRAS to KD value for KRAS): GDP-bound HRAS wild-type vs GDP-bound KRAS wild-type
Chain of GDP-bound HRAS wild-type protein (P01112 whole entry): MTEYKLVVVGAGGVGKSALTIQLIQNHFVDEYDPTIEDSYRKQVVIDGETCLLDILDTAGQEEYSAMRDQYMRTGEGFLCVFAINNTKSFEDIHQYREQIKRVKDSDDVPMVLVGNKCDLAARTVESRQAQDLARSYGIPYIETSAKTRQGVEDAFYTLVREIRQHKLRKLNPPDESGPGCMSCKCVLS

CC[C@H](C)[C@@H]1NC(=O)[C@H](CC(C)C)N(C)C(=O)C[C@@H](C(=O)N2CCOCC2)N(C)C(=O)[C@H](C2CCCC2)N(C)C(=O)C2(CCCC2)NC(=O)[C@@H]2CCCN2C(=O)[C@H](CCc2ccc(C(F)(F)F)c(Cl)c2)NC(=O)CN(C)C(=O)[C@H](Cc2ccc(OC)cc2)N2CCCCC[C@@H](C2=O)N(C)C(=O)CN(C)C1=O [PP0614]
NRAS/KRAS (ratio of KD value with respect to GDP-bound NRAS wild-type protein to KD value with respect to KRAS) [1]: B (a compound having 3 or more and less than 10 is denoted as B)
HRAS/KRAS (ratio of KD value with respect to GDP-bound HRAS wild-type protein to KD value with respect to KRAS) [2]: B (a compound having 3 or more and less than 10 is denoted as B)

CCCN1C(=O)CN(C)C(=O)[C@@H]2CCN2C(=O)[C@H]([C@@H](C)CC)NC(=O)[C@H](CC(C)C)N(C)C(=O)C[C@@H](C(=O)N2CCOCC2)N(C)C(=O)[C@H](C2CCCC2)N(C)C(=O)C2(CCCC2)NC(=O)[C@@H]2CC(C)(C)CN2C(=O)[C@H](CCc2ccc(C(F)(F)F)c(Cl)c2)NC(=O)CN(C)C(=O)[C@@H]1Cc1ccc(C(F)(F)F)cc1 [PP0452] ([NMeL]I[Aze][Sar][NPrPhe(4-CF3)][Sar][hPhe(3-Cl-4-CF3)][Pro(4,4-Me2)][Ac5c][NMeGly(cPent)][NMeD]-Morpholide; lactam N-11)
NRAS/KRAS (ratio of KD value with respect to GDP-bound NRAS wild-type protein to KD value with respect to KRAS) [1]: B (a compound having 3 or more and less than 10 is denoted as B)
HRAS/KRAS (ratio of KD value with respect to GDP-bound HRAS wild-type protein to KD value with respect to KRAS) [2]: B (a compound having 3 or more and less than 10 is denoted as B)

CCCN1CC(=O)N2CC[C@H]2C(=O)N(CCC)[C@@H](Cc2ccc(C(F)(F)F)cc2)C(=O)N(C)CC(=O)N[C@@H](CCc2ccc(C(F)(F)F)c(Cl)c2)C(=O)N2CCC[C@H]2C(=O)NC2(CCCC2)C(=O)N(C)[C@@H](C2CCCC2)C(=O)N(C)[C@H](C(=O)N2CCOCC2)CC(=O)N(C)[C@@H](CC(C)C)C(=O)N[C@@H]([C@@H](C)CC)C1=O [PP0274] ([NMeL]I[NPrGly][Aze][NPrPhe(4-CF3)][Sar][hPhe(3-Cl-4-CF3)]P[Ac5c][NMeGly(cPent)][NMeD]-Morpholide; lactam N-11)
NRAS/KRAS (ratio of KD for GDP-bound NRAS wild-type to KD for KRAS) [1]: C (A compound having a KD ratio of 0.1 or more and less than 3 is denoted as C)
HRAS/KRAS (ratio of KD for GDP-bound HRAS wild-type to KD for KRAS) [2]: B (a compound having 3 or more and less than 10 is denoted as B)

CCCN1C(=O)[C@@H]2CCN2C(=O)[C@H](C)N(C)C(=O)[C@H]([C@@H](C)CC)NC(=O)[C@H](CC(C)C)N(C)C(=O)C[C@@H](C(=O)N2CCOCC2)N(C)C(=O)[C@H](C2CCCC2)N(C)C(=O)C2(CCCC2)NC(=O)[C@@H]2CCN2C(=O)[C@H](CCc2ccc(C(F)(F)F)c(Cl)c2)NC(=O)CN(C)C(=O)[C@@H]1Cc1ccc(C(F)(F)F)cc1 [PP0281] ([NMeL]I[NMeA][Aze][NPrPhe(4-CF3)][Sar][hPhe(3-Cl-4-CF3)][Aze][Ac5c][NMeGly(cPent)][NMeD]-Morpholide; lactam N-11)
NRAS/KRAS (ratio of KD for GDP-bound NRAS wild-type to KD for KRAS) [1]: C (A compound having a KD ratio of 0.1 or more and less than 3 is denoted as C)
HRAS/KRAS (ratio of KD for GDP-bound HRAS wild-type to KD for KRAS) [2]: C (A compound having a KD ratio of 0.1 or more and less than 3 is denoted as C)

CC[C@H](C)[C@@H]1NC(=O)[C@H](CC2CC2)N(C)C(=O)C[C@@H](C(=O)N(C)CC)N(C)C(=O)[C@H](C2CCCC2)N(C)C(=O)C2(CC(C)(C)C2)NC(=O)[C@@H]2C[C@H](C)CN2C(=O)[C@H](CCc2ccc(C(F)(F)F)c(OC)c2)NC(=O)CN(C)C(=O)[C@H](Cc2ccc(C)cc2)N2CC/C=C\C[C@@H](C2=O)N(C)C(=O)CN(C)C1=O [PP1899]
NRAS/KRAS (ratio of KD value for NRAS to KD value for KRAS) [1]: A (a compound having 10 or more and less than 20 is denoted as A)
HRAS/KRAS (ratio of KD value for HRAS to KD value for KRAS) [2]: B (a compound having 3 or more and less than 10 is denoted as B)

CC[C@H](C)[C@@H]1NC(=O)[C@H](CC(C)C)N(C)C(=O)C[C@@H](C(=O)N2C3CCC2COC3)N(C)C(=O)[C@H](C2CCCC2)N(C)C(=O)C2(CCCC2)NC(=O)[C@@H]2CCCN2C(=O)[C@H](CCc2cc(F)c(C(F)(F)F)c(F)c2)NC(=O)CN(C)C(=O)[C@H](Cc2ccc(C(F)(F)F)cc2)N2CCCCC[C@@H](C2=O)N(C)C(=O)CN(C)C1=O [PP0511]
NRAS/KRAS (ratio of KD value with respect to GDP-bound NRAS wild-type protein to KD value with respect to KRAS) [1]: A (a compound having 10 or more and less than 20 is denoted as A)
HRAS/KRAS (ratio of KD value with respect to GDP-bound HRAS wild-type protein to KD value with respect to KRAS) [2]: B (a compound having 3 or more and less than 10 is denoted as B)

CCCN1C(=O)CN(C)C(=O)[C@@H]2CCN2C(=O)[C@H]([C@@H](C)CC)NC(=O)[C@H](CC(C)C)N(C)C(=O)C[C@@H](C(=O)N2CCOCC2)NC(=O)[C@H](C2CCCC2)N(C)C(=O)C2(CCC2)NC(=O)[C@@H]2CC(F)(F)CN2C(=O)[C@H](CCc2ccc(C(F)(F)F)c(Cl)c2)NC(=O)CN(C)C(=O)[C@@H]1Cc1ccc(C(F)(F)F)cc1 [PP0340] ([NMeL]I[Aze][Sar][NPrPhe(4-CF3)][Sar][hPhe(3-Cl-4-CF3)][Pro(4,4-F2)][Ac4c][NMeGly(cPent)]D-Morpholide; lactam N-11)
NRAS/KRAS (ratio of KD for GDP-bound NRAS wild-type to KD for KRAS) [1]: B (a compound having 3 or more and less than 10 is denoted as B)
HRAS/KRAS (ratio of KD for GDP-bound HRAS wild-type to KD for KRAS) [2]: B (a compound having 3 or more and less than 10 is denoted as B)

CCCN1C(=O)CN(C)C(=O)CN(C)C(=O)[C@H]([C@@H](C)CC)NC(=O)[C@H](CC(C)C)N(C)C(=O)C[C@@H](C(=O)N(C)C)NC(=O)[C@H](C2CCCC2)N(C)C(=O)C2(CCC2)NC(=O)[C@@H]2CC(F)(F)CN2C(=O)[C@H](CCc2ccc(C(F)(F)F)c(Cl)c2)NC(=O)CN(C)C(=O)[C@@H]1Cc1ccc(C(F)(F)F)cc1 [PP0358] ([NMeL]I[Sar][Sar][NPrPhe(4-CF3)][Sar][hPhe(3-Cl-4-CF3)][Pro(4,4-F2)][Ac4c][NMeGly(cPent)]D-NMe2; lactam N-11)
NRAS/KRAS (ratio of KD for GDP-bound NRAS wild-type to KD for KRAS) [1]: B (a compound having 3 or more and less than 10 is denoted as B)
HRAS/KRAS (ratio of KD for GDP-bound HRAS wild-type to KD for KRAS) [2]: C (A compound having a KD ratio of 0.1 or more and less than 3 is denoted as C)

CC[C@H](C)[C@@H]1NC(=O)[C@H](CC(C)C)N(CC)C(=O)C[C@@H](C(=O)N2CCOCC2)N(C)C(=O)[C@H](C2CCCC2)N(C)C(=O)C2(CCCC2)NC(=O)[C@@H]2CCCN2C(=O)[C@H](CCc2cc(F)c(C(F)(F)F)c(F)c2)NC(=O)CN(C)C(=O)[C@H](Cc2ccc(C(F)(F)F)cc2)N2CCCC[C@@H](C2=O)N(C)C(=O)CN(C)C1=O [PP0588]
NRAS/KRAS (ratio of KD value with respect to GDP-bound NRAS wild-type protein to KD value with respect to KRAS) [1]: B (a compound having 3 or more and less than 10 is denoted as B)
HRAS/KRAS (ratio of KD value with respect to GDP-bound HRAS wild-type protein to KD value with respect to KRAS) [2]: B (a compound having 3 or more and less than 10 is denoted as B)

CCC[C@H]1C(=O)N[C@@H]([C@@H](C)CC)C(=O)N(C)CC(=O)N(C)[C@H]2C/C=C\CCN(C2=O)[C@@H](Cc2ccc(C)cc2)C(=O)N(C)CC(=O)N[C@@H](CCc2cc(F)c(C(F)(F)F)c(F)c2)C(=O)N2C[C@H](C)C[C@H]2C(=O)NC2(CCC2)C(=O)N(C)[C@@H](C2CCCC2)C(=O)N(C)[C@H](C(=O)N(C)CC)CC(=O)N1C [PP1862]
NRAS/KRAS (ratio of KD value for NRAS to KD value for KRAS) [1]: A (a compound having 10 or more and less than 20 is denoted as A)
HRAS/KRAS (ratio of KD value for HRAS to KD value for KRAS) [2]: A (a compound having 10 or more and less than 20 is denoted as A)
